Results published in article PMC10418113 (bioRxiv, 2023).

Legend:
[1] = biological target: BCKDC (E2 subunit DBT) (Mus musculus, UniProt P53395); experiment: BCKDC activity of matrix lysate after preincubation, isovaleryl-CoA by LCMS; assay type: biochemical; conditions: read-out: % inhibition at 0.1 μM
[2] = biological target: T1, DLD (E3 subunit of purified porcine PDHC) (Sus scrofa, UniProt P09623); experiment: diaphorase activity, NBT-formazan at […] nm and in-gel; assay type: biochemical; conditions: 0.1 mg/mL NADH, 0.2 mg/mL NBT, 50 mM potassium phosphate pH 7.0
T1 sequence (P09623 36-509): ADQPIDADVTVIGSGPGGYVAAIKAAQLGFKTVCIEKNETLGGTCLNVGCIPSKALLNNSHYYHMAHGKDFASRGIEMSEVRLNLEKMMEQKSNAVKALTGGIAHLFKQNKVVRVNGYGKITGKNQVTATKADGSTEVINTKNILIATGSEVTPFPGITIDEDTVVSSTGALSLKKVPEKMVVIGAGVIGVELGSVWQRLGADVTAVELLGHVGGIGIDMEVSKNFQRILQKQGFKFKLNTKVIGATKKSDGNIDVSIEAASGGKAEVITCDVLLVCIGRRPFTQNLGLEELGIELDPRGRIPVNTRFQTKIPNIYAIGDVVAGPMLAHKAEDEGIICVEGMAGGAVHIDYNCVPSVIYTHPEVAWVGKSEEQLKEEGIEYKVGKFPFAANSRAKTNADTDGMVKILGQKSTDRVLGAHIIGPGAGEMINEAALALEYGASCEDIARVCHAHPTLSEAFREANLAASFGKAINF

Sequence of BCKDC (E2 subunit DBT) (P53395 62-482): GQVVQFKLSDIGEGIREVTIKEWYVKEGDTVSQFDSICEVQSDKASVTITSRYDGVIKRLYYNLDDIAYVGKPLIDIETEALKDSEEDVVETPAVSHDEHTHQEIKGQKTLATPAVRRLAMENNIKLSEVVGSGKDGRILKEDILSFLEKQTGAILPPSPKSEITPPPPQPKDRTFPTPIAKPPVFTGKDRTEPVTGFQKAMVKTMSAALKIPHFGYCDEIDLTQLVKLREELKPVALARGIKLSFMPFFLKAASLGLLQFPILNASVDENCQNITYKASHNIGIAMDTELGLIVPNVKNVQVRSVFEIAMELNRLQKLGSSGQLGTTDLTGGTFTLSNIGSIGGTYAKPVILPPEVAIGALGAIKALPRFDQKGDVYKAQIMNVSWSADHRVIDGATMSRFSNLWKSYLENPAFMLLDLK
Sequence of BCKDC (E2 subunit DBT) (P50136 43-442 partner): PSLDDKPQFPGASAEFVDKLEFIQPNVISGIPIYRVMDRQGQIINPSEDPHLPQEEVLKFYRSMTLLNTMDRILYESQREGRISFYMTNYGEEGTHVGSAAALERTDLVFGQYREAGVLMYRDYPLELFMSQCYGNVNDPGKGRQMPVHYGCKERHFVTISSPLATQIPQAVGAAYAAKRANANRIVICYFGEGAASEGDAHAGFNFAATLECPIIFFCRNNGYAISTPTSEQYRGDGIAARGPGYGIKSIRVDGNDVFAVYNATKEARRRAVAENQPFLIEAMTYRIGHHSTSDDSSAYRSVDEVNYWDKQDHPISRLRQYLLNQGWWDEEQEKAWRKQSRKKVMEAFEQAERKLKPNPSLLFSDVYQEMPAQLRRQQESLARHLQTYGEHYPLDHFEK
Sequence of BCKDC (E2 subunit DBT) (Q6P3A8 49-390 partner): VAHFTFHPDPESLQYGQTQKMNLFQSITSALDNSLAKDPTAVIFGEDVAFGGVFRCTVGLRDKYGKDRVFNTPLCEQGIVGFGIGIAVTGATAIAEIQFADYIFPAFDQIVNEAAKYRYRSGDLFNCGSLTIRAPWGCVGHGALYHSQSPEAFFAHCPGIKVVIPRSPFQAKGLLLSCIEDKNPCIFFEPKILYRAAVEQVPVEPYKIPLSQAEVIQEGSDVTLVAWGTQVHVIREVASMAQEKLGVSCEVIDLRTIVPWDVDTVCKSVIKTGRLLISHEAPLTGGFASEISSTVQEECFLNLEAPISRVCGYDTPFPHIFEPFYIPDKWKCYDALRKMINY
Sequence of BCKDC (E2 subunit DBT) (O08749 36-509 partner): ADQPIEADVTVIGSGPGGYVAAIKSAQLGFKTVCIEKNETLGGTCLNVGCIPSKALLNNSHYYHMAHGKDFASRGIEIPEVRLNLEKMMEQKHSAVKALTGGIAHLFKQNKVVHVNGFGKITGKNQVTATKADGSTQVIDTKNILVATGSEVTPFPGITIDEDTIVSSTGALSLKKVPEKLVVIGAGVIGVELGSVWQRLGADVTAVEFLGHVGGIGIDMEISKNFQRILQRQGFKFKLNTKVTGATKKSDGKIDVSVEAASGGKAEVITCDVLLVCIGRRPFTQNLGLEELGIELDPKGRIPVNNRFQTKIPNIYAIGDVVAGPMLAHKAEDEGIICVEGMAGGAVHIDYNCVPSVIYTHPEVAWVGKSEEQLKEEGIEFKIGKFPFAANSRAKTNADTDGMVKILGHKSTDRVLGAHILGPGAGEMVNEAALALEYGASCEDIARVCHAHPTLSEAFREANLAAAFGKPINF

inhibition at 0.1 µM [1] | Structure (SMILES) | diaphorase activity, NBT-formazan at 568 nm and in-gel [2]
> 50% | CC(C)(COP(=O)(O)OP(=O)(O)OC[C@H]1O[C@@H](n2cnc3c(N)ncnc32)[C@H](O)[C@@H]1OP(=O)(O)O)[C@@H](O)C(=O)NCCC(=O)NCCSN=O [SNO-CoA] | –
– | NC(=O)C1=CN([C@@H]2O[C@H](COP(=O)(O)OP(=O)(O)OC[C@H]3O[C@@H](n4cnc5c(N)ncnc54)[C@H](O)[C@@H]3O)[C@@H](O)[C@H]2O)C=CC1 [NADH] | As a blank control, the same amount of mitochondria lysate was mixed with assay buffer without NADH
